Read-outs that look alike come from different tables or passages of the source.
Columns and labels:
Assay in all cases: Test D pre-/postemergence plant response
Assay type in all cases: in vivo
[1] = tested on: large (Lg) crabgrass (Digitaria sanguinalis); conditions: Digitaria sanguinalis; for pest or weed control at 16 g/ha: 16 g ai/ha; for pest or weed control at 31 g/ha: 31 g ai/ha; for pest or weed control at 62 g/ha: 62 g ai/ha; for pest or weed control at 125 g/ha: 125 g ai/ha
In short: (§1)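 Each compound, in non-phytotoxic solvent with surfactant, was sprayed onto soil right after sowing or onto young plants 2 to 18 cm tall. After 13 to 15 days under greenhouse conditions, effects were judged visually against controls on a 0 (no effect) to 100 (complete control) scale.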

[2] = tested on: winter wheat (Triticum aestivum); conditions: Triticum aestivum; for plant injury at 31 g/ha: 31 g ai/ha; for plant injury at 62 g/ha: 62 g ai/ha; for plant injury at 125 g/ha: 125 g ai/ha
In short: as §1

[3] = tested on: lambsquarters (Chenopodium album); conditions: Chenopodium album; for pest or weed control at 31 g/ha: 31 g ai/ha; for pest or weed control at 62 g/ha: 62 g ai/ha; for pest or weed control at 125 g/ha: 125 g ai/ha
In short: as §1

[4] = tested on: galium (catchweed bedstraw, Galium aparine); conditions: Galium; for pest or weed control at 31 g/ha: 31 g ai/ha; for pest or weed control at 62 g/ha: 62 g ai/ha; for pest or weed control at 125 g/ha: 125 g ai/ha
In short: as §1

[5] = tested on: blackgrass (Alopecurus myosuroides); conditions: Alopecurus myosuroides; for pest or weed control at 16 g/ha: 16 g ai/ha; for pest or weed control at 125 g/ha: 125 g ai/ha
In short: as §1

[6] = post-emergence, Postemergence, scale 0 to 100 (0 no effect, 100 complete control), read-out: Crabgrass, Large plant response rating
[7] = post-emergence, Postemergence, scale 0 to 100, 0 no effect, 100 complete control, read-out: Plant response rating, Crabgrass, Large
[8] = pre-emergence, Preemergence, scale 0 to 100 (0 no effect, 100 complete control), read-out: Plant response rating, Crabgrass, Large
[9] = post-emergence, Postemergence, scale 0 to 100, 0 no effect, 100 complete control, read-out: Plant response rating, Wheat
[10] = pre-emergence, Preemergence, scale 0 to 100 (0 no effect, 100 complete control), read-out: Plant response rating, Wheat
[11] = post-emergence, Postemergence, scale 0 to 100, 0 no effect, 100 complete control, read-out: Plant response rating, Lambsquarters
[12] = pre-emergence, Preemergence, scale 0 to 100 (0 no effect, 100 complete control), read-out: Plant response rating, Lambsquarters
[13] = post-emergence, Postemergence, scale 0 to 100, 0 no effect, 100 complete control, read-out: Plant response rating, Galium
[14] = pre-emergence, Preemergence, scale 0 to 100 (0 no effect, 100 complete control), read-out: Plant response rating, Galium

Fc1cccc(Oc2ncc(Br)cn2)c1-c1cc(C(F)F)no1 [Compound 145, 5-bromo-2-[2-[3-(difluoromethyl)-5-isoxazolyl]-3-fluorophenoxy]pyrimidine]
pest or weed control at 16 g/ha [1, 6]: 5%
pest or weed control at 31 g/ha [1, 6]: 10%
pest or weed control at 62 g/ha [1, 7]: 10%
pest or weed control at 125 g/ha [1, 7]: 20%
pest or weed control at 125 g/ha ([1]; pre-emergence, Preemergence, read-out: Plant response rating (scale 0 to 100), Crabgrass, Large): 100%
pest or weed control at 16 g/ha [1, 8]: 85%
pest or weed control at 31 g/ha [1, 8]: 100%
pest or weed control at 62 g/ha [1, 8]: 100%
plant injury at 31 g/ha ([2]; post-emergence, Postemergence, scale 0 to 100 (0 no effect, 100 complete control), read-out: Wheat plant response rating): 5%
plant injury at 62 g/ha [2, 9]: 5%
plant injury at 125 g/ha [2, 9]: 10%
plant injury at 125 g/ha ([2]; pre-emergence, Preemergence, read-out: Plant response rating (scale 0 to 100), Wheat): 10%
plant injury at 16 g/ha ([2]; pre-emergence, Preemergence, 16 g ai/ha, scale 0 to 100 (0 no effect, 100 complete control), read-out: Plant response rating, Wheat): 0%
plant injury at 31 g/ha [2, 10]: 0%
plant injury at 62 g/ha [2, 10]: 5%
pest or weed control at 31 g/ha ([3]; post-emergence, Postemergence, scale 0 to 100 (0 no effect, 100 complete control), read-out: Lambsquarters plant response rating): 85%
pest or weed control at 62 g/ha [3, 11]: 85%
pest or weed control at 125 g/ha [3, 11]: 95%
pest or weed control at 125 g/ha ([3]; pre-emergence, Preemergence, read-out: Plant response rating (scale 0 to 100), Lambsquarters): 100%
pest or weed control at 16 g/ha ([3]; pre-emergence, Preemergence, 16 g ai/ha, scale 0 to 100 (0 no effect, 100 complete control), read-out: Plant response rating, Lambsquarters): 100%
pest or weed control at 31 g/ha [3, 12]: 100%
pest or weed control at 62 g/ha [3, 12]: 100%
pest or weed control at 31 g/ha ([4]; post-emergence, Postemergence, scale 0 to 100 (0 no effect, 100 complete control), read-out: Galium plant response rating): 80%
pest or weed control at 62 g/ha [4, 13]: 80%
pest or weed control at 125 g/ha [4, 13]: 90%
pest or weed control at 125 g/ha ([4]; pre-emergence, Preemergence, read-out: Plant response rating (scale 0 to 100), Galium): 100%
pest or weed control at 16 g/ha ([4]; pre-emergence, Preemergence, 16 g ai/ha, scale 0 to 100 (0 no effect, 100 complete control), read-out: Plant response rating, Galium): 90%
pest or weed control at 31 g/ha [4, 14]: 98%
pest or weed control at 62 g/ha [4, 14]: 100%
pest or weed control at 16 g/ha ([5]; post-emergence, Postemergence, scale 0 to 100 (0 no effect, 100 complete control), read-out: Blackgrass plant response rating): 15%
pest or weed control at 31 g/ha ([5]; post-emergence, Postemergence, 31 g ai/ha, scale 0 to 100 (0 no effect, 100 complete control), read-out: Blackgrass plant response rating): 20%
pest or weed control at 62 g/ha ([5]; post-emergence, Postemergence, 62 g ai/ha, scale 0 to 100, 0 no effect, 100 complete control, read-out: Plant response rating, Blackgrass): 25%
pest or weed control at 125 g/ha ([5]; post-emergence, Postemergence, scale 0 to 100, 0 no effect, 100 complete control, read-out: Plant response rating, Blackgrass): 80%
pest or weed control at 125 g/ha ([5]; pre-emergence, Preemergence, read-out: Plant response rating (scale 0 to 100), Blackgrass): 95%
pest or weed control at 16 g/ha ([5]; pre-emergence, Preemergence, scale 0 to 100 (0 no effect, 100 complete control), read-out: Plant response rating, Blackgrass): 15%
